pIC50: −log10 of the molar value. Where “and” joins values, the source holds several entries; their conditions need not be identical. Equal values may be shown once.
Assays:
Assay in all cases: Kir family selectivity thallium flux assay
Format in all cases: cell-based
[1] = target: T1, Kir7.1 (M125R) (Homo sapiens, UniProt O60928, M125R); settings: for pIC50: thallium flux
T1 construct: expressed in transfected cells
T1 sequence (O60928 1-360 M125R): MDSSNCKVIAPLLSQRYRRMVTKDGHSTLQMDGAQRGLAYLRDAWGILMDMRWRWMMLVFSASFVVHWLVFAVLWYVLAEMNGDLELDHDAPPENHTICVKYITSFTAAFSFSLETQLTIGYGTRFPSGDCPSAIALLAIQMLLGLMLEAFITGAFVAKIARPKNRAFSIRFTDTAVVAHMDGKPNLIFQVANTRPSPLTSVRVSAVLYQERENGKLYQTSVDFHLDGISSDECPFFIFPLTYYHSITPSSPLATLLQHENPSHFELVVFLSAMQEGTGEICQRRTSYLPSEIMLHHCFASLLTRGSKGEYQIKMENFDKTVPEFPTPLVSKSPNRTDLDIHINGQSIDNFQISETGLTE
Procedure: (§1) Thallium flux assays were conducted using the established methods. Stably transfected T-REx-HEK-293 cells expressing Kir6.2/SUR1 or Kir6.1/SUR2B were cultured overnight in polyamine-coated plates (black-walled, clear-bottomed; BD, Bedford, MA) at a density of 20,000 cells in 20 µl per well of cell culture media. The expression of Kir6.2/SUR1 or Kir6.1/SUR2B channels was induced by treating cells with 1 µg/ml tetracycline overnight. The following day, cells were rinsed with an assay buffer (Hanks’ Balanced Salt Solution supplied with 20 mM HEPES), loaded with the thallium-sensor dye Brilliant Thallos-AM AM (Ion Bioscience, San Marcos, TX) for 1 h, and then washed again with assay buffer to remove unincorporated dye. The cell plate was subsequently placed in a Panoptic Kinetic Imaging Plate Reader (Wavefront Bioscience, Franklin, TN) and imaged at a frequency of 1 Hz using 482/35 nm (excitation) and 536/40 nm (emission) filter sets. Kir6.1/SUR2B channels were activated with 10 µM pinacidil, whereas Kir6.1/SUR1 was activated with 30 µM VU0071063 [34]. To activate KATP channels independent of activators with ATP-depletion method, cells were treated with a cocktail of metabolic inhibitors (2.5 mM sodium cyanide and 20 mM 2-deoxy glucose) for 25 min before imagine. Control and test compounds diluted freshly from DMSO stocks into assay buffer were added to wells for four minutes before adding 0.5 mM chloride-free thallium stimulus buffer (Ion Bioscience) to initiate thallium flux through the expressed KATP channels. Thallium flux was recorded from all 384-wells for 2 min before terminating the experiment. […] Selectivity assays against other Kir channels were performed as described previously.
(§2) To begin elucidating the binding site location of VU0212387, VU0543336, VU0605768, and VU0544086, we evaluated the activity of the inhibitors against KATP channels composed of different Kir and SUR subunit combinations expressed in HEK293 cells. Specifically, the compounds were tested against Kir6.1/SUR1, Kir6.2/SUR1, Kir6.1/SUR2A, Kir6.2/SUR2A, Kir6.1/SUR2B, and Kir6.2/SUR2B at a dose of 3 µM. […] We expanded the selectivity analysis to include 10 other members of the Kir channel family.

[2] = target: T2, Kir2.1 (Homo sapiens, UniProt P63252)
T2 construct: expressed in transfected cells
T2 sequence (P63252 1-427): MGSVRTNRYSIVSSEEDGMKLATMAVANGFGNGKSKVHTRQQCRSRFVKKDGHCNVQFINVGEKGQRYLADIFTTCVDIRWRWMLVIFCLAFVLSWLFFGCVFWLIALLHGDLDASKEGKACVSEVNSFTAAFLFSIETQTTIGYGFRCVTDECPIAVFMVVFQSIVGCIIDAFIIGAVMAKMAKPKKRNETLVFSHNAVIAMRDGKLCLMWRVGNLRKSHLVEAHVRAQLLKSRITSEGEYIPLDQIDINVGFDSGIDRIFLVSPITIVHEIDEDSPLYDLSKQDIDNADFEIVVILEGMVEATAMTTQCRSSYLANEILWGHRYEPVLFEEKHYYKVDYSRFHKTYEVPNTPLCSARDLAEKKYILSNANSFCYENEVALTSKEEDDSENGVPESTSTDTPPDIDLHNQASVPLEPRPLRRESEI
Procedure: as §1, §2

[3] = target: T3, Kir4.2 (Homo sapiens, UniProt Q99712); settings: for pIC50: thallium flux; for inhibition at 30 µM: observed at 30 µM, read-out: Percent maximal inhibition of Kir4.2
T3 construct: expressed in transfected cells
T3 sequence (Q99712 1-375): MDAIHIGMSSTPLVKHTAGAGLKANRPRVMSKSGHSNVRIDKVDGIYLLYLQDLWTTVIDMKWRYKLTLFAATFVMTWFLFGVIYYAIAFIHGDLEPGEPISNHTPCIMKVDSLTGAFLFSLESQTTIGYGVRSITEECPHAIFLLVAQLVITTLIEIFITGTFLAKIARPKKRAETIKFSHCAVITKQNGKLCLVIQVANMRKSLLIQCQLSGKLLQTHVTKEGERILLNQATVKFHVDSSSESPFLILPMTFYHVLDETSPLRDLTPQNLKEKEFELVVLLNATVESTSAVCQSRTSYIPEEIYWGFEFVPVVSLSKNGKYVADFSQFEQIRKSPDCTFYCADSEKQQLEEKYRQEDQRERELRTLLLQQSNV
Procedure: as §1, §2

Row | Compound | pIC50 [1] | pIC50 [2] | pIC50 [3] | inhibition at 30 µM [3] [%] | inhibition at 30 µM ([1]; observed at 30 µM, read-out: Percent maximal inhibition of Kir7.1 (M125R)) [%]
1 | O=C(NCc1cc(-c2ccncc2)n(C2CCCC2)n1)Nc1cccs1 [VU0544086, 1-((1-cyclopentyl-5-(pyridin-4-yl)-1 H-pyrazol-3-yl)methyl)-3-(thiophen-2-yl)urea] | < 4.52 | < 4.52 | < 4.52 |  | 
2 | O=C(NCC(O)(c1ccccc1)C(F)(F)F)c1ccc(OC(F)(F)F)cc1 (stereo not drawn) [VU0543336, N-(3,3,3-trifluoro-2-hydroxy-2-phenylpropyl)-4-(trifluoromethoxy)benzamide] | < 4.52 | < 4.52 | 4.92 and 4.93 | 110 | 
3 | O=C1c2oc3ccccc3c(=O)c2C(c2cccc(Br)c2)N1CCO (stereo not drawn) [VU0605768, 1-(3-bromophenyl)-2-(2-hydroxyethyl)-1,2-dihydrochromeno[2,3-c]pyrrole-3,9-dione] | < 4.52 | < 4.52 | < 4.52 |  | 
4 | c1ccc2[nH]c(CSc3ncnc4c3oc3ccccc34)nc2c1 [VU0212387, 4-(((1 H-benzo[d]imidazol-2-yl)methyl)thio)benzofuro[3,2-d]pyrimidine] | 4.92 and 4.91 | < 4.52 | 4.77 | 56 | 69

Reference: article PMC11418212, “Characterization of four structurally diverse inhibitors of SUR2-containing KATP channels” (Channels, 2024)
